One experiment has as its target ROCK2 (Homo sapiens (Human), UniProt O75116). Kind of experiment: ROCK2 Kinase Activity Assay (HTRF KinEASE-STK S2 kit). In kind it is biochemical. As to the method: The kinase IC50 was determined by a commercialized CISBIO kinase detection kit, HTRF KinEASE-STK S2 kit (62ST2PEC). ROCK2 (01-119) employed in the reaction was purchased from Carna Biosciences.
Before the assay, the following working solutions as needed were formulated with corresponding reagents according to the instruction of the kinase detection kit: 1×kinase buffer, 5×STK-S2 substrate working solution (1.5 μM) and 5×ATP working solution (1.5 μM), 5×ROCK2 kinase working solution, 4×Streptavidin-XL665 working solution, and 4×STK-Ab-Cryptate 2 detection solution. Then the assay was performed according to the following procedure.
A solution of a compound at a concentration of 10000 nM was prepared with the 1×kinase buffer containing 2.5% DMSO. Gradient dilution of the solution of the compound was performed with the kinase buffer containing DMSO, so as to obtain solutions of a test compound at 9 different concentrations. In addition to wells of test compounds, a positive well (containing all the reagents except the compound) and a negative well (containing all the reagents except the test compound and kinase) were set. Except for the control wells (positive and negative wells), a solution of a test compound (4 μL) was added to each of the reaction wells, and a solution of 2.5% DMSO was added to the control wells. Then the substrate (2 μM, i.e., 2 μL 5×STK-S2 substrate working solution) was added to each of the reaction wells. The 5×ROCK2 kinase working solution (2 μL, containing 1.4 ng ROCK2 kinase) was added to each of the reaction wells except for the negative well, the volume of which was made up with the 1×kinase buffer (2 μL). The 5×ATP working solution (2 μL) was added to each of the reaction wells, and the mixtures were incubated at room temperature for 2 hours. After the kinase reaction was complete, the 4×Streptavidin-XL665 working solution was added to each of the reaction wells, the solutions were mixed, followed by immediate addition of the 4×STK-Ab-Cryptate 2 detection solution (5 μL), and the mixtures were incubated at room temperature for 1 hour. The fluorescence signal was read on ENVISION (Perkinelmer) (excitation wavelength: 320 nm, and emission wavelength: 665 nm and 615 nm). The inhibitory rate in each well was calculated based on the fluorescence intensity value: ER (Emission Ratio)=(fluorescence intensity at 665 nm/fluorescence intensity at 615 nm); inhibitory rate=(ERpositive−ERtest compound)/(ERpositive−ERnegative)*100%. Curves were plotted and fitted to obtain the median inhibitory concentration (IC50) of each teat compound with the PRISM 5.0 software.
(In general: Time-resolved FRET reads energy transfer from a long-lived donor to a nearby acceptor.)

In experiment [1] the test system is irradiated BALB/c recipient mice infused with C57BL/6 donor bone marrow and spleen cells. Kind of experiment: Therapeutic effect in mice: allogeneic bone marrow/spleen cell transplantation GVHD model, survival rate. Particulars: 30 mpk oral gavage once daily for 23 days, compared with the model group. In kind it is in vivo. How it is done: Male BALB/c recipient mice were irradiated with 8.5 Gy of total body irradiation (TBI) (Gammacell 40, NORPION International Co., Ltd., irradiation source: ^137Cs). A suspension of bone marrow cells (BMC) and spleen cells (SC) from C57BL/6 (H-2b) donor mice was prepared and infused via tail vein to irradiated BALB/c recipient mice at 0.5 mL/per mouse (containing 10×10^6 bone marrow cells and 6.25×10^6 spleen cells from the allogeneic C57BL/6 (H-2b) donor mice). Subsequently, the BALB/c mice were randomly divided into two groups: a model group (G2) and a compound 007 group (G3). An irradiation group (G4) (i.e., receiving ^137Cs irradiation only without donor mouse cell suspension infusion) and a syngeneic bone marrow transplantation group (G1) (a suspension containing 10×10^6 bone marrow cells from syngeneic BALB/c mice was administered to mice in this group via tail vein infusion). G1-G4 groups comprised 9 mice per group. The mice in the model group, the irradiation group and the syngeneic bone marrow transplantation group were administered with vehicle (a 0.2% Tween-80 aqueous solution) by oral gavage, once a day for 23 days. The mice in the compound 007 group were administered with 30 mpk of compound 007 by oral gavage, once daily for 23 days from the first day of model establishment. The survival rate of the animals was recorded daily.

Experiment [2] relates to CD4 Naïve T cells from BALB/c mice mixed with C57BL/6 dendritic cells. As to the kind of experiment: Allogeneic Mixed Lymphocyte Reaction, inflammatory factors in supernatant. Type of experiment: cell-based, mouse. Particulars: 125 nM, 250 nM, 500 nM, 1000 nM; 5 days of culture; compared with control group. How it is done:
Bone marrow cells from C57BL/6 (B6) mouse were isolated and incubated with granulocyte-macrophage colony stimulating factor (GM-CSF, 20 ng/mL, Biolegend, 713704) and interleukin-4 (IL-4, 10 ng/mL, Biolegend, 10715004) for 7 days, followed by addition of 20 ng/mL lipopolysaccharide (LPS) and incubation for 24 hours, the dendritic cells (DC) were collected. The CD4 Naïve T cells from BALB/c mice were extracted and isolated with a commercial kit (Dakewe, 480039). […] CD4 Naïve T cells and 25×10^3 DC cells were mixed and cultured. Compound 007 was added to the mixed cells at four concentrations (125 nM, 250 nM, 500 nM, and 1000 nM), respectively, and a control group (to which an equal amount of the medium was added) was set. After 5 days of culture, the supernatants were collected and kits were employed for the detection of inflammatory factors (IL-6 (Duyou, 1210602), TNF-α (Duyou, 1217202), IFN-γ (Duyou, 1210002), and IL-2 (Duyou, 1210202)).

Data on ten compounds can be found in patent US20230285393A1, “METHOD FOR TREATING GRAFT VERSUS HOST DISEASE CAUSED BY HEMATOPOIETIC STEM CELL TRANSPLANTATION” (BEIJING TIDE PHARMACEUTICAL CO., LTD., priority 2020, published 2023).

ROCK2, sequence (O75116 1-553 limits assumed): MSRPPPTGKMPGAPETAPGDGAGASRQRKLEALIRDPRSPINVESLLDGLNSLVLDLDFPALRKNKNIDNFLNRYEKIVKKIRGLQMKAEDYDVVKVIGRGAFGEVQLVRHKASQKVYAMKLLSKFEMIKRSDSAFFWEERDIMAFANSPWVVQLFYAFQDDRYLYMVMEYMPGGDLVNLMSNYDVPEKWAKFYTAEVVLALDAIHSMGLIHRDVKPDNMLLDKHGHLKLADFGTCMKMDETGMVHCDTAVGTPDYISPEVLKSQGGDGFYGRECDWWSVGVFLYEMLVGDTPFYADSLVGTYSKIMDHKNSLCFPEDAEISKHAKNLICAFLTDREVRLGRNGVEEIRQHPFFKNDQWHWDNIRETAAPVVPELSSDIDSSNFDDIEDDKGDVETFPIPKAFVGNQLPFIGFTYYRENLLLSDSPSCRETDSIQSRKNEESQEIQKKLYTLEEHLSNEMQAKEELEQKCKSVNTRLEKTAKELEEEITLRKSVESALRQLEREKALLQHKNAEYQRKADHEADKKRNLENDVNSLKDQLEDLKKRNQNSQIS

In turn, `O=C(c1cc2ccc(-c3nccc(Nc4ccc(-c5cn[nH]c5)cc4)n3)cc2[nH]1)N1CC(F)(F)C1` [Compound 006] showed an IC50 at ROCK2 of 34 nM.

As to `Cn1c(C(=O)N2CC(F)(F)C2)cc2ccc(-c3nccc(Nc4ccc(-c5cn[nH]c5)cc4)n3)cc21` [Compound 007], at ROCK2, the IC50 is 33 nM. Also, the survival rate entry in experiment [1] is on record as “significantly improved the survival rate”. The “levels of the inflammatory factors (IL-6, TNF-α, IFN-γ, IL-2)” value in experiment [2] is on record as “significantly reduced the levels of the inflammatory factors”.

`O=C(c1cc2ccc(-c3ncc(F)c(Nc4ccc(-c5cn[nH]c5)cc4)n3)cc2[nH]1)N1CC(F)(F)C1` [Compound 008] returned an IC50 against ROCK2 of 24 nM. This counts as double-digit nanomolar.

At ROCK2, `Cn1c(C(=O)N2CC(F)(F)C2)cc2ccc(-c3ncc(F)c(Nc4ccc(-c5cn[nH]c5)cc4)n3)cc21` [Compound 009] registered an IC50 of 12 nM. Compared with the last compound, the IC50 is about 2-fold lower.

The compound `O=C(c1cc2ccc(-c3nccc(Nc4ccc(-c5cn[nH]c5)c(F)c4)n3)cc2[nH]1)N1CC(F)(F)C1` [Compound 010] showed an IC50 at ROCK2 of 61 nM. This IC50 lies about 5.1-fold higher than the previous one.

`Cn1c(C(=O)N2CC(F)(F)C2)cc2ccc(-c3nccc(Nc4ccc(-c5cn[nH]c5)c(F)c4)n3)cc21` [Compound 011] gave an IC50 on ROCK2 of 9 nM.

`O=C(C1CC(F)(F)C1)N1Cc2ccc(-c3nccc(Nc4ccc(-c5cn[nH]c5)cc4)n3)cc2C1` [Compound 020] came in with an IC50 at ROCK2 of 44 nM.

For `O=C(C1CC(F)(F)C1)N1Cc2ccc(-c3ncc(F)c(Nc4ccc(-c5cn[nH]c5)cc4)n3)cc2C1` [Compound 021], at ROCK2, inhibition was half-maximal at 45 nM (IC50).

`O=C(N1Cc2ccc(-c3nccc(Nc4ccc(-c5cn[nH]c5)cc4)n3)cc2C1)N1CC(F)(F)C1` [Compound 022] showed an IC50 against ROCK2 of 75 nM.

On ROCK2, `Fc1cc(Nc2ccnc(-c3ccc4cc(-c5nccs5)[nH]c4c3)n2)ccc1-c1cn[nH]c1` [Compound 128] returned an IC50 of 27 nM. This IC50 lies about 2.8-fold lower than the previous one.

For orientation: IC50 means the concentration that inhibits the measured activity by half. Low values mean higher potency, high ones lower potency.
